In ChEMBL document CHEMBL3576778, “Structure-Activity Relationship Studies of a Series of Semisynthetic Lipopeptides Leading to the Discovery of Surotomycin, a Novel Cyclic Lipopeptide Being Developed for the Treatment of Clostridium difficile-Associated Diarrhea” (J Med Chem, 2015):
Values after ≈ are worked out from the molar mass of the structure shown.

Columns and labels:
Format in all cases: functional
Clostridioides difficile = assay: Antimicrobial activity against daptomycin-resistant Clostridium difficile NAP1 incubated anaerobically at 37 degC for 48 hrs by agar dilution method; conditions: NAP1, 48 h
Staphylococcus aureus = assay: Antimicrobial activity against daptomycin-susceptible Staphylococcus aureus ATCC 29213 incubated anaerobically at 37 degC for 48 hrs by agar dilution method; conditions: ATCC 29213, 48 h
Enterococcus faecium = assay: Antimicrobial activity against daptomycin-resistant Enterococcus faecium ATCC 6569 incubated anaerobically at 37 degC for 48 hrs by agar dilution method; conditions: ATCC 6569, 48 h
Enterococcus faecalis = assay: Antimicrobial activity against daptomycin-resistant Enterococcus faecalis ATCC 49452 incubated anaerobically at 37 degC for 48 hrs by agar dilution method; conditions: ATCC 49452, 48 h

Row | SMILES | MIC (Clostridioides difficile) [µg/mL] | MIC (Staphylococcus aureus) [µg/mL] | MIC (Enterococcus faecium) [µg/mL] | MIC (Enterococcus faecalis) [µg/mL]
1 | C[C@H]1NC(=O)C(CC(=O)O)NC(=O)[C@H](CCCN)NC(=O)CNC(=O)[C@@H](NC(=O)[C@H](CC(=O)O)NC(=O)[C@H](CC(N)=O)NC(=O)[C@H](Cc2c[nH]c3ccccc23)NC(=O)CCCCC2CCCCC2)[C@@H](C)OC(=O)[C@H](CC(=O)c2ccccc2N)NC(=O)[C@H]([C@@H](C)CC(=O)O)NC(=O)[C@@H](CO)NC(=O)CNC(=O)[C@H](CC(=O)O)NC1=O (single isomer, unassigned) | 4 (≈ 2.45 µM) | 1 (≈ 0.612 µM) | 32 (≈ 19.6 µM) | > 32
2 | CCCCc1ccc(/C=C(\C)C(=O)N[C@@H](Cc2c[nH]c3ccccc23)C(=O)N[C@@H](CC(N)=O)C(=O)N[C@@H](CC(=O)O)C(=O)N[C@@H]2C(=O)NCC(=O)N[C@@H](CCCN)C(=O)NC(CC(=O)O)C(=O)N[C@H](C)C(=O)N[C@@H](CC(=O)O)C(=O)NCC(=O)N[C@H](CO)C(=O)N[C@@H]([C@@H](C)CC(=O)O)C(=O)N[C@@H](CC(=O)c3ccccc3N)C(=O)O[C@@H]2C)cc1 (single isomer, unassigned) | 2 (≈ 1.2 µM) | 1 (≈ 0.6 µM) | 32 (≈ 19.2 µM) | > 32
3 | C[C@H]1NC(=O)C(CC(=O)O)NC(=O)[C@H](CCCN)NC(=O)CNC(=O)[C@@H](NC(=O)[C@H](CC(=O)O)NC(=O)[C@H](CC(N)=O)NC(=O)[C@H](Cc2c[nH]c3ccccc23)NC(=O)CCCCCc2ccccc2)[C@@H](C)OC(=O)[C@H](CC(=O)c2ccccc2N)NC(=O)[C@H]([C@@H](C)CC(=O)O)NC(=O)[C@@H](CO)NC(=O)CNC(=O)[C@H](CC(=O)O)NC1=O (single isomer, unassigned) | 16 (≈ 9.75 µM) | 16 (≈ 9.75 µM) | > 32 | > 32
4 | CC(C)CCCCCCCCCCC(=O)N[C@@H](Cc1c[nH]c2ccccc12)C(=O)N[C@@H](CC(N)=O)C(=O)N[C@@H](CC(=O)O)C(=O)N[C@@H]1C(=O)NCC(=O)N[C@@H](CCCN)C(=O)NC(CC(=O)O)C(=O)N[C@H](C)C(=O)N[C@@H](CC(=O)O)C(=O)NCC(=O)N[C@H](CO)C(=O)N[C@@H]([C@@H](C)CC(=O)O)C(=O)N[C@@H](CC(=O)c2ccccc2N)C(=O)O[C@@H]1C (single isomer, unassigned) | 1 (≈ 0.596 µM) | 0.125 (≈ 0.0745 µM) | 4 (≈ 2.39 µM) | 16 (≈ 9.54 µM)
5 | CCCCCCCCOc1ccc(-c2ccc(C(=O)N[C@@H](Cc3c[nH]c4ccccc34)C(=O)N[C@@H](CC(N)=O)C(=O)N[C@@H](CC(=O)O)C(=O)N[C@@H]3C(=O)NCC(=O)N[C@@H](CCCN)C(=O)N[C@H](CC(=O)O)C(=O)N[C@H](C)C(=O)N[C@@H](CC(=O)O)C(=O)NCC(=O)N[C@H](CO)C(=O)N[C@@H]([C@@H](C)CC(=O)O)C(=O)N[C@@H](CC(=O)c4ccccc4N)C(=O)O[C@@H]3C)cc2)cc1 | 1 (≈ 0.563 µM) | 0.125 (≈ 0.0704 µM) | 4 (≈ 2.25 µM) | 16 (≈ 9.01 µM)
6 | CCCCCCCCCCCCCC(=O)N[C@@H](Cc1c[nH]c2ccccc12)C(=O)N[C@@H](CC(N)=O)C(=O)N[C@@H](CC(=O)O)C(=O)N[C@@H]1C(=O)NCC(=O)N[C@@H](CCCN)C(=O)NC(CC(=O)O)C(=O)N[C@H](C)C(=O)N[C@@H](CC(=O)O)C(=O)NCC(=O)N[C@H](CO)C(=O)N[C@@H]([C@@H](C)CC(=O)O)C(=O)N[C@@H](CC(=O)c2ccccc2N)C(=O)O[C@@H]1C (single isomer, unassigned) | 16 (≈ 9.54 µM) | 1 (≈ 0.596 µM) | 4 (≈ 2.39 µM) | 4 (≈ 2.39 µM)
7 | CCCCCCc1ccc(C(=O)N[C@@H](Cc2c[nH]c3ccccc23)C(=O)N[C@@H](CC(N)=O)C(=O)N[C@@H](CC(=O)O)C(=O)N[C@@H]2C(=O)NCC(=O)N[C@@H](CCCN)C(=O)N[C@H](CC(=O)O)C(=O)N[C@H](C)C(=O)N[C@@H](CC(=O)O)C(=O)NCC(=O)N[C@H](CO)C(=O)N[C@@H]([C@@H](C)CC(=O)O)C(=O)N[C@@H](CC(=O)c3ccccc3N)C(=O)O[C@@H]2C)cc1 | 4 (≈ 2.42 µM) | 1 (≈ 0.604 µM) | 32 (≈ 19.3 µM) | > 32
8 | C[C@H]1NC(=O)[C@@H](CC(=O)O)NC(=O)[C@H](CCCN)NC(=O)CNC(=O)[C@@H](NC(=O)[C@H](CC(=O)O)NC(=O)[C@H](CC(N)=O)NC(=O)[C@H](Cc2c[nH]c3ccccc23)NC(=O)c2ccc(-c3ccc(Cl)cc3)cc2)[C@@H](C)OC(=O)[C@H](CC(=O)c2ccccc2N)NC(=O)[C@H]([C@@H](C)CC(=O)O)NC(=O)[C@@H](CO)NC(=O)CNC(=O)[C@H](CC(=O)O)NC1=O | 16 (≈ 9.52 µM) | 4 (≈ 2.38 µM) | > 32 | > 32
9 | C[C@H]1NC(=O)C(CC(=O)O)NC(=O)[C@H](CCCN)NC(=O)CNC(=O)[C@@H](NC(=O)[C@H](CC(=O)O)NC(=O)[C@H](CC(N)=O)NC(=O)[C@H](Cc2c[nH]c3ccccc23)NC(=O)CCCCCC2CCCCC2)[C@@H](C)OC(=O)[C@H](CC(=O)c2ccccc2N)NC(=O)[C@H]([C@@H](C)CC(=O)O)NC(=O)[C@@H](CO)NC(=O)CNC(=O)[C@H](CC(=O)O)NC1=O (single isomer, unassigned) | 2 (≈ 1.21 µM) | 1 (≈ 0.607 µM) | 16 (≈ 9.72 µM) | > 32
